Where two headings read alike, the source gives them in different places.
Key:
Panc-1 = test: Drug dose-response curves, cell proliferation, Panc-1; type: cell-based; conditions: Homo sapiens, read-out: cell proliferation, IC50 values
Experimental: (§1) Efficacy of ROCK inhibition evaluated by drug dose-response curves: The small molecule ROCK1 inhibitors, fasudil and Y27632, were analyzed for their effects in pancreatic cancer cell lines. Drug dose-response curves were created to assess the efficacy of ROCK inhibition at 72 hours of drug exposure. FIG. 5A presents the drug dose-response curves for fasudil exposure in MiaPaca, Su8686, Panc-1 and CW1 cell line cells. FIG. 5B presents the drug dose-response curves for Y-27632 exposure in the same above mentioned cell lines. Gemcitabine, a nucleoside analog, replaces one of the building blocks, cytidine, during DNA replication and thus arrests tumor growth, which leads to cell death. Gemcitabine is shown for reference as illustrated in FIG. 5C.

MiaPaca2 = test: Drug dose-response curves, cell proliferation, MiaPaca2; type: cell-based; conditions: Homo sapiens, read-out: ROCK1 inhibition, IC50 values
Experimental: as §1

Su8686 = test: Drug dose-response curves, cell proliferation, Su8686; type: cell-based; conditions: Homo sapiens
Experimental: as §1

CW1 = test: Drug dose-response curves, cell proliferation, CW1; type: cell-based; conditions: Homo sapiens, read-out: ROCK1 inhibition, IC50 values
Experimental: as §1

PDA cell proliferation = test: Inhibition of PDA cell proliferation (summary over cell lines); type: cell-based; conditions: Homo sapiens; range over cell lines of TABLE 2; 72 hours; read-out: IC50s range, inhibition of PDA cell proliferation
Experimental: as §1

Panc-1 cells [1] = test: Modified Boyden Chamber Assay, cell migration; type: cell-based, human; conditions: at both 500 μM and 20 μM
[2] = tested on: Collagen 1 mRNA in cultured human stellate cells; test: Quantitative PCR analysis of Collagen 1 mRNA levels (FIG. 11); type: cell-based; conditions: highest concentration of fasudil (100 μm)
Experimental: Fasudil inhibits collagen expression in cultured human stellate cells: The analysis of collagen expression in cultured human stellate cells exposed to Fasudil was carried out using quantitative PCR analysis of Collagen 1 mRNA levels.

[3] = tested on: co-culture of human pancreatic cancer-derived myofibroblasts and SU8686 cells; test: Co-culture stained for aSMA and collagen 1 (FIG. 7); type: cell-based; conditions: 72 hours
[4] = tested on: co-culture of human pancreatic cancer-derived fibroblasts and SU8686 cells; test: Co-culture stained for cytokeratin and αSMA (FIG. 12); type: cell-based; conditions: 72 hours
Text: Fasudil inhibits stellate cell proliferation and function: The effects of fasudil on the proliferation and expansion of the stromal compartment in a co-culture of human pancreatic cancer-derived fibroblasts and SU8686 cells were compared. […] Subsequently, cells were fixed and stained for the epithelial cell marker, cytokeratin, in green, and αSMA, in red.

[5] = tested on: collagen 1 in CW1 myofibroblasts and SU8686 cells; test: Collagen 1 expression in single and co-cultures, dot blot (FIG. 8); type: cell-based, human
Experimental: Fasudil reduces collagen synthesis in co-cultured pancreatic cells: The effects of fasudil on the expression of collagen 1 in single and co-cultures of human myofibroblasts and SU8686 cells were examined. These cells were seeded and then treated with fasudil for 72 hours at the concentrations indicated. Treatment conditions are shown at top of the figure panel, and standard curve concentrations are shown below the figure panel (FIG. 8A). Calibrated collagen concentrations were shown in FIG. 8B (20 μg total protein loaded per sample). […] Fasudil inhibits collagen expression in cultured human stellate cells: The analysis of collagen expression in cultured human stellate cells exposed to Fasudil was carried out using quantitative PCR analysis of Collagen 1 mRNA levels.

Panc-1 cells [6] = test: SRB (Sulphorhodamine) cell viability assay with fasudil; type: cell-based, human
Experimental: To further study the effects of fasudil at these concentrations on growth, an SRB (Sulphorhodamine) cell viability assay was performed. […] In both FIGS. 6A and 6B, “UT” stands for untreated; and “SFM” stands for serum-free media.

[7] = Panc-1 cell line, 72 hours of drug exposure, read-out: ROCK1 inhibition, IC50 values
[8] = MIA PaCa-2, MiaPaca2 cell line, 72 hours of drug exposure
[9] = SU.86.86, Su8686 cell line, 72 hours of drug exposure, read-out: ROCK1 inhibition, IC50 values
[10] = CW1 cell line, 72 hours of drug exposure

IC50 (Panc-1; [7]) [µM] | IC50 (MiaPaca2; [8]) [µM] | SMILES | IC50 (Su8686; [9]) [µM] | IC50 (CW1; [10]) [µM] | IC50 (Panc-1; PANC-1, 72 h) [µM] | IC50 (MiaPaca2; MIA PaCa-2, 72 h) [µM] | IC50 (Su8686; SU.86.86, 72 h) [µM] | IC50 (CW1; 72 h) [µM] | IC50 (PDA cell proliferation) [µM] | migrating cells relative to serum (chemoattractant) containing media control (Panc-1 cells [1]) | collagen expression (Collagen 1 mRNA) [2] | inhibition of aSMA and collagen 1 expressing myofibroblasts ([3]; 50 μM, 25 μM, and 12 μM) | cell proliferation of both cancer cells and myofibroblasts relative to untreated ([3]; 100 μM) | inhibition of aSMA expressing cells (stellate cells) ([4]; 50 μM, 25 μM, and 12 μM) | cell proliferation of both cancer cells and stellate cells relative to untreated ([4]; 100 μM) | collagen synthesis relative to the untreated sample ([5]; 100 μM, 50 μM, and 25 μM, 72 hours) | collagen expression, dot blot on protein lysates ([5]; monocultured stellate cells (CW1) and co-cultured tumor/stellate cells (CW1/SU8686), 6-100 μm) | cytotoxicity (Panc-1 cells [6]; 20 μM) | cell survival (Panc-1 cells [6]; 500 μM, 24 hours) [%]
> 100 | 0.056 | Nc1ccn([C@@H]2O[C@H](CO)[C@@H](O)C2(F)F)c(=O)n1 [Gemcitabine] | 0.017 | > 100 |  |  |  |  |  |  |  |  |  |  |  |  |  |  | 
 |  | CC(N)C1CCC(C(=O)Nc2ccncc2)CC1 (stereo not drawn) [Y27632, 4-(1-aminoethyl)-N-pyridin-4-yl-cyclohexane-1-carboxamide] |  |  | > 100 | 6.8 | 27.9 | 6.4 | 6 to 71 |  |  |  |  |  |  |  |  |  | 
> 100 | 55 | O=S(=O)(c1cccc2cnccc12)N1CCCNCC1 [Fasudil, 5-(1,4-diazepan-1-ylsulfonyl)isoquinoline] | 71.2 | 66 |  |  |  |  | 6 to 71 | significant reduction in migrating cells | three-fold decrease in collagen expression | selectively inhibited | significant reduction in cell proliferation | selectively inhibited | significant reduction in cell proliferation | significant reduction in collagen synthesis | Decreased collagen expression | no significant cytotoxicity | 50.3

— patent US8703736B2, “Therapeutic target for pancreatic cancer cells” (The Translational Genomics Research Institute, priority 2011, dated 2014)
